According to US10023577B2, “Crystalline form of JAK kinase inhibitor bisulfate and a preparation method thereof” (Jiangsu Hengrui Medicine Co., Ltd., priority 2014, dated 2018):
Entries after “also recorded” stand apart in the source; their conditions may differ.

What was measured:
[1] = Stability of samples spread flat in the air under lighting, heating and high humidity, purity by HPLC; assay type: physicochemical
Protocol: Crystal form II prepared in Example 1 and the amorphous sample prepared in Example 2 were spread flat in the air to test their stability in conditions of lighting (4500 Lux), heating (40° C., 60′C.), and high humidity (RH 75%, RH 90%).

[2] = Special stability study: grinding, heating and pressing of the crystal form; assay type: physicochemical
Description: Crystal form II of the compound of formula (I) prepared according to the method of Example 1 was ground, heated and pressed.

Structure (SMILES) | purity as detected by HPLC ([1]; 40° C., Day 0) [%] | purity as detected by HPLC ([1]; 40° C., Day 5) [%] | purity as detected by HPLC ([1]; 40° C., Day 10) [%] | purity as detected by HPLC ([1]; 60° C., Day 0) [%] | purity as detected by HPLC ([1]; 60° C., Day 5) [%] | purity as detected by HPLC ([1]; 60° C., Day 10) [%] | purity as detected by HPLC ([1]; Lighting (4500 Lux), Day 0) [%] | purity as detected by HPLC ([1]; Lighting (4500 Lux), Day 5) [%] | purity as detected by HPLC ([1]; Lighting (4500 Lux), Day 10) [%] | purity as detected by HPLC ([1]; RH 75%, Day 0) [%] | purity as detected by HPLC ([1]; RH 75%, Day 5) [%] | purity as detected by HPLC ([1]; RH 75%, Day 10) [%] | purity as detected by HPLC ([1]; RH 90%, Day 0) [%] | purity as detected by HPLC ([1]; RH 90%, Day 5) [%] | purity as detected by HPLC ([1]; RH 90%, Day 10) [%] | effect of high humidity on stability [1] | further results
COc1nsc(NC(=O)N2C[C@H]3C[C@H](N(C)c4ncnc5[nH]ccc45)C[C@H]3C2)n1 [Amorphous Form, (3aR,5s,6aS)—N-(3-methoxyl-1,2,4-thiadiazole-5-yl)-5-(methyl(7H-pyrrolo[2,3-d]pyrimidine-4-yl)amino)hexahydrocyclopenta[c]pyrrole-2(1H)-formamide bisulfate] | 98.33 | 97.65 | 96.61 | 98.33 | 94.53 | 92.12 | 98.33 | 98.04 | 97.51 | 98.33 | 98.32 | 98.16 | 98.33 | 99.14 | 99.12 | does not have much effect | 
COc1nsc(NC(=O)N2C[C@H]3C[C@H](N(C)c4ncnc5[nH]ccc45)C[C@H]3C2)n1 [Crystal form II, (3aR,5s,6aS)—N-(3-methoxyl-1,2,4-thiadiazole-5-yl)-5-(methyl(7H-pyrrolo[2,3-d]pyrimidine-4-yl)amino)hexahydrocyclopenta[c]pyrrole-2(1H)-formamide bisulfate] | 99.30 | 99.30 | 99.28 | 99.30 | 99.20 | 99.15 | 99.30 | 99.29 | 99.30 | 99.30 | 99.31 | 99.28 | 99.30 | 99.31 | 99.31 | does not have much effect | stability compared with the amorphous sample ([1]; conditions of high temperature and high humidity): significantly better than that of the amorphous sample; stability compared with the amorphous sample ([1]; conditions of lighting and high temperature): significantly better than that of the amorphous sample; Crystal form after treatment ([2]; Grinding treatment for 10 minutes in a mortar under nitrogen atmosphere): form II; Crystal form after treatment ([2]; Heating treatment at 80° C. for 3 hours): form II; Crystal form after treatment ([2]; Pressing treatment, pressed to a slice): form II; stability of the crystal form ([2]; ground, heated and pressed): good stability; also recorded: stable
